Measured values as given in US12484581B2, “Agricultural or horticultural insecticide or animal ectoparasite or endoparasite control agent each comprising a condensed heterocyclic compound having a substituted cyclopropane-oxadiazole group or a salt thereof as active ingredient, and method for using the insecticide or the control agent” (NIHON NOHYAKU CO., LTD., priority 2019, dated 2025).

What was measured:
Assay type in all cases: in vivo
Laodelphax striatellus = assay: whole plant or invertebrate; conditions: 192 h, rice seedlings dipped 30 seconds, 3rd-instar larvae, 8 days after inoculation, criteria of Test Example 1, read-out: insecticidal efficacy (corrected mortality rate)
Plutella xylostella = assay: whole plant or invertebrate; conditions: 144 h, Chinese cabbage seedlings with laid eggs dipped about 30 seconds, 6 days after dip treatment, criteria of Test Example 1, read-out: insecticidal efficacy (corrected mortality rate)
Haemonchus contortus = assay: Larval motility assay on Haemonchus contortus; conditions: 96 h, L1 stage larvae, 4 days, relative to DMSO only, read-out: percent motility inhibition
Experimental: Larval Motility Assay on Haemonchus contortus
DMSO diluted solutions of various compounds of the present invention were added at the final concentration of 50 ppm to the wells of a 96-well plate containing a predetermined conditioned medium. Twenty L1 stage larvae of H. contortus were introduced into each well of the 96-well plate. The plate was allowed to stand for 4 days, and then larval motility was examined. The percent motility inhibition in the wells of each treatment was calculated relative to the wells of treatment with DMSO only.

Dirofilaria immitis = assay: Larval motility assay on Dirofilaria immitis; conditions: 72 h, L1 stage larvae, 3 days, relative to DMSO only, read-out: percent motility inhibition
Experimental: Larval Motility Assay on Dirofilaria immitis
Five hundred L1 stage larvae of D. immitis were diluted in a predetermined conditioned medium and introduced into each well of a 96-well plate. DMSO diluted solutions of various compounds of the present invention were added at the final concentration of 50 ppm to the wells of the 96-well plate. The plate was allowed to stand for 3 days, and then larval motility was examined. The percent motility inhibition in the wells of each treatment was calculated relative to the wells of treatment with DMSO only.

Ctenocephalides felis = assay: whole plant or invertebrate; conditions: 50 ppm in bovine blood, oral via feeder, adults, following day, read-out: mortality rate
Rhipicephalus sanguineus = assay: Assay for transdermal parasiticidal activity against nymphs of Rhipicephalus sanguineus; conditions: 100 ppm applied to inside of sample bottles, two days later
From the text: DMSO diluted solutions of various compounds of the present invention were individually diluted to the final concentration of 100 ppm with an acetone/triton mixture and applied to the inside of vented sample bottles. After overnight drying, ten nymphs of R. sanguineus were introduced into each bottle, and the mortality rate was examined two days later. Aberrant adults were regarded as the dead.

SMILES | mortality at 500 ppm (Laodelphax striatellus) [%] | mortality at 500 ppm (Plutella xylostella) [%] | inhibition at 50 ppm (Haemonchus contortus) [%] | inhibition at 50 ppm (Dirofilaria immitis) [%] | mortality at 50 ppm (Ctenocephalides felis) [%] | parasiticidal activity (mortality rate) (Rhipicephalus sanguineus)
CCS(=O)(=O)c1cc(-c2noc(C3(C)CC3)n2)cnc1-c1nc2cc(C(F)(F)F)cnc2n1C [Compound 1-2] | 100 | 100 | ≥ 50 | ≥ 50 | ≥ 50 | –
CCS(=O)(=O)c1cc(-c2noc(C3(C(F)(F)F)CC3)n2)cnc1-c1nc2cc(C(F)(F)F)cnc2n1C [Compound 1-4, 3-(5-ethylsulfonyl-6-(3-methyl-6-trifluoromethyl-3H-imidazo [4,5-b]pyridin-2-yl)pyridin-3-yl)-5-(1-trifluoromethylcyclopropyl)-1,2,4-oxadiazole] | 100 | 100 | ≥ 50 | ≥ 50 | ≥ 50 | parasiticidal activity
CCS(=O)(=O)c1cc(-c2noc(C3(c4ccccc4)CC3)n2)cnc1-c1nc2cc(C(F)(F)F)cnc2n1C [Compound 1-5] | 100 | 100 | ≥ 50 | ≥ 50 | – | parasiticidal activity
CCS(=O)(=O)c1cc(-c2noc(C3CC3C)n2)cnc1-c1nc2cc(C(F)(F)F)cnc2n1C (stereo not drawn) [Compound 1-6, 3-(5-ethylsulfonyl-6-(3-methyl-6-trifluoromethyl-3H-imidazo[4,5-b]pyridin-2-yl)pyridin-3-yl)-5-(2-methylcyclopropyl)-1,2,4-oxadiazole] | 100 | 100 | ≥ 50 | ≥ 50 | – | –
CCS(=O)(=O)c1cc(-c2noc(C3(C(F)(F)F)CC3)n2)cnc1-c1nc2cc(C(F)(F)F)ncc2n1C [Compound 1-7] | 100 | 100 | ≥ 50 | ≥ 50 | ≥ 50 | –
CCS(=O)(=O)c1cc(-c2noc(C3(C(F)(F)F)CC3)n2)cnc1-c1nc2cc([S+]([O-])C(F)(F)F)ccc2n1C (stereo not drawn) [Compound 1-8] | 100 | 100 | – | – | – | –
